In ChEMBL document CHEMBL4393706, “Ursolic acid derivative induces apoptosis in glioma cells through down-regulation of cAMP” (2019):
Active and inactive are the calls of the source. The calls are words filed in the database; no cut-off is given here.

What was measured:
U-251 [1] = assay: Induction of apoptosis in human U251 cells assessed as apoptotic cells at 8 uM measured after 48 hrs by annexin V/FITC-propidium iodide staining-based flow cytometric method relative to control; assay type: functional
C6 [2] = assay: Antiproliferative activity against rat C6 cells assessed as cell proliferation at 6 uM measured after 48 hrs relative to control; assay type: functional; settings: C6, 48 h, read-out: Activity
U-251 [3] = assay: Cell cycle arrest in human U251 cells assessed as accumulation at G2/M phase at 8 uM measured after 48 hrs by propidium iodide staining based FACScan flow cytometry (reference value: 52.67 %); assay type: functional
U-251 [4] = assay: Induction of autophagy in human U251 cells assessed as morphological changes at 10 uM measured after 48 hrs by transmission electron microscopy; assay type: functional, cell-based
U-251 [5] = assay: Cell cycle arrest in human U251 cells assessed as accumulation at G0/G1 phase at 10 uM measured after 48 hrs by propidium iodide staining based FACScan flow cytometry (reference value: 29.21 %); assay type: functional
U-251 [6] = assay: Induction of apoptosis in human U251 cells assessed as apoptotic cells at 4 uM measured after 48 hrs by annexin V/FITC-propidium iodide staining-based flow cytometric method ( Rvb = 2.34%); assay type: functional
U-251 [7] = assay: Antiproliferative activity against human U251 cells assessed as cell proliferation at 4 uM measured after 48 hrs relative to control; assay type: functional; settings: U-251, 48 h, read-out: Activity
U-251 [8] = assay: Antiproliferative activity against human U251 cells measured after 48 hrs by MTT assay; assay type: functional, cell-based
U-251 [9] = assay: Cell cycle arrest in human U251 cells assessed as accumulation at G2/M phase at 6 uM measured after 48 hrs by propidium iodide staining based FACScan flow cytometry (reference value: 52.67 %); assay type: functional
U-251 [10] = assay: Induction of morphological changes in human U251 cells assessed as chromatin condensation at 6 to 10 uM measured after 48 hrs by transmission electron microscopy; assay type: functional, cell-based
U-251 [11] = assay: Induction of apoptosis in human U251 cells assessed as apoptotic cells at 10 uM measured after 48 hrs by annexin V/FITC-propidium iodide staining-based flow cytometric method relative to control; assay type: functional
U-251 [12] = assay: Induction of morphological changes in human U251 cells assessed as appearance of autophagic vacuoles at 6 to 10 uM measured after 48 hrs by transmission electron microscopy; assay type: functional, cell-based
U-251 [13] = assay: Induction of apoptosis in human U251 cells assessed as apoptotic cells at 6 uM measured after 48 hrs by annexin V/FITC-propidium iodide staining-based flow cytometric method relative to control; assay type: functional
C6 [14] = assay: Antiproliferative activity against rat C6 cells assessed as cell proliferation at 4 uM measured after 48 hrs relative to control; assay type: functional; settings: C6, 48 h, read-out: Activity
C6 [15] = assay: Antiproliferative activity against rat C6 cells measured after 48 hrs by MTT assay; assay type: functional, cell-based
U-251 [16] = assay: Antiproliferative activity against human U251 cells assessed as reduction in cAMP level at 6 uM measured after 48 hrs by radio-immunoassay relative to control; assay type: functional; set-up: scale not given: the % may be the effect or the level left
U-251 [17] = assay: Cell cycle arrest in human U251 cells assessed as accumulation at G0/G1 phase at 6 uM measured after 48 hrs by propidium iodide staining based FACScan flow cytometry (reference value: 29.21 %); assay type: functional
U-251 [18] = assay: Antiproliferative activity against human U251 cells assessed as cell proliferation at 8 uM measured after 48 hrs relative to control; assay type: functional; settings: U-251, 48 h, read-out: Activity
C6 [19] = assay: Antiproliferative activity against rat C6 cells assessed as cell proliferation at 2 uM measured after 48 hrs relative to control; assay type: functional; settings: C6, 48 h, read-out: Activity
U-251 [20] = assay: Induction of morphological changes in human U251 cells assessed as appearance of lipid droplets at 10 uM measured after 48 hrs by transmission electron microscopy; assay type: functional, cell-based
U-251 [21] = assay: Induction of morphological changes in human U251 cells assessed as inhibtion of microvilli at 6 to 10 uM measured after 48 hrs by scanning electron microscopy; assay type: functional, cell-based
C6 [22] = assay: Antiproliferative activity against rat C6 cells assessed as cell proliferation at 10 uM measured after 48 hrs relative to control; assay type: functional; settings: C6, 48 h, read-out: Activity
U-251 [23] = assay: Cell cycle arrest in human U251 cells assessed as accumulation at S phase at 8 uM measured after 48 hrs by propidium iodide staining based FACScan flow cytometry (reference value: 16.34 %); assay type: functional
U-251 [24] = assay: Antiproliferative activity against human U251 cells assessed as reduction in cAMP level at 2 uM measured after 48 hrs by radio-immunoassay; assay type: functional, cell-based
U-251 [25] = assay: Cell cycle arrest in human U251 cells assessed as accumulation at S phase at 10 uM measured after 48 hrs by propidium iodide staining based FACScan flow cytometry (reference value: 16.34 %); assay type: functional
U-251 [26] = assay: Cell cycle arrest in human U251 cells assessed as accumulation at G0/G1 phase at 8 uM measured after 48 hrs by propidium iodide staining based FACScan flow cytometry (reference value: 29.21 %); assay type: functional
U-251 [27] = assay: Cell cycle arrest in human U251 cells assessed as accumulation at G0/G1 phase at 4 uM measured after 48 hrs by propidium iodide staining based FACScan flow cytometry (reference value: 29.21 %); assay type: functional
U-251 [28] = assay: Cytotoxicity against human U251 cells at 5 uM measured after 48 hrs by MTT assay; assay type: functional, cell-based
U-251 [29] = assay: Induction of morphological changes in human U251 cells assessed as movement of chromatin granules towards periphery of nucleoplasm at 10 uM measured after 48 hrs by transmission electron microscopy; assay type: functional, cell-based
U-251 [30] = assay: Cell cycle arrest in human U251 cells assessed as accumulation at S phase at 6 uM measured after 48 hrs by propidium iodide staining based FACScan flow cytometry (reference value: 16.34 %); assay type: functional
U-251 [31] = assay: Antiproliferative activity against human U251 cells assessed as cell proliferation at 2 uM measured after 48 hrs relative to control; assay type: functional; settings: U-251, 48 h, read-out: Activity
U-251 [32] = assay: Induction of morphological changes in human U251 cells assessed as membrane blebbing at 6 to 10 uM measured after 48 hrs by transmission electron microscopy; assay type: functional, cell-based
U-251 [33] = assay: Antiproliferative activity against human U251 cells assessed as cell proliferation at 10 uM measured after 48 hrs relative to control; assay type: functional; settings: U-251, 48 h, read-out: Activity
U-251 [34] = assay: Cell cycle arrest in human U251 cells assessed as accumulation at G2/M phase at 10 uM measured after 48 hrs by propidium iodide staining based FACScan flow cytometry (reference value: 52.67 %); assay type: functional
U-251 [35] = assay: Antiproliferative activity against human U251 cells assessed as cell proliferation at 6 uM measured after 48 hrs relative to control; assay type: functional; settings: U-251, 48 h, read-out: Activity
U-251 [36] = assay: Induction of morphological changes in human U251 cells assessed as appearance of foamy cytoplasmic material at 6 to 10 uM measured after 48 hrs by transmission electron microscopy; assay type: functional, cell-based
U-251 [37] = assay: Antiproliferative activity against human U251 cells assessed as reduction in cAMP level at 4 to 10 uM measured after 48 hrs by radio-immunoassay; assay type: functional, cell-based
U-251 [38] = assay: Induction of morphological changes in human U251 cells assessed as inhibtion of cell surface extension at 6 to 10 uM measured after 48 hrs by scanning electron microscopy; assay type: functional, cell-based
U-251 [39] = assay: Induction of apoptosis in human U251 cells assessed as increase in apoptotic cells at 2 uM measured after 48 hrs by annexin V/FITC-propidium iodide staining-based flow cytometric method; assay type: functional, cell-based
C6 [40] = assay: Antiproliferative activity against rat C6 cells assessed as cell proliferation at 8 uM measured after 48 hrs relative to control; assay type: functional; settings: C6, 48 h, read-out: Activity

## C[C@H]1[C@H](C)CC[C@]2(C(=O)O)CC[C@]3(C)C(=CC[C@@H]4[C@@]5(C)C/C(=C(\c6ccc(O)cc6O)C(c6ccccc6O)c6c[nH]c7ccccc67)C(=O)C(C)(C)[C@@H]5CC[C@]43C)[C@H]12 (stereo not given in full)
U-251 [1]
  Activity: 39.78%
C6 [2]
  growth at 6 µM: 68%
U-251 [3]
  Activity: 42.45%
U-251 [4]
  Activity: Active
U-251 [5]
  Activity: 53.76%
U-251 [6]
  Activity: 8.56%
U-251 [7]
  growth at 4 µM: 83%
U-251 [8]
  Activity: Dose-dependent effect
U-251 [9]
  Activity: 49.26%
U-251 [10]
  Activity: Active
U-251 [11]
  Activity: 69.32%
U-251 [12]
  Activity: Active
U-251 [13]
  Activity: 21.65%
C6 [14]
  growth at 4 µM: 86%
C6 [15]
  Activity: Dose-dependent effect
U-251 [16]
  Activity: 50%
U-251 [17]
  Activity: 36.16%
U-251 [18]
  growth at 8 µM: 39%
C6 [19]
  growth at 2 µM: 99%
U-251 [20]
  Activity: Active
U-251 [21]
  Activity: Active
C6 [22]
  growth at 10 µM: 21%
U-251 [23]
  Activity: 11.78%
U-251 [24]
  Activity: inactive
U-251 [25]
  Activity: 9.65%
U-251 [26]
  Activity: 41.78%
U-251 [27]
  Activity: 32.44%
U-251 [28]
  Activity: Active
U-251 [29]
  Activity: Active
U-251 [30]
  Activity: 12.51%
U-251 [31]
  growth at 2 µM: 99%
U-251 [32]
  Activity: Active
U-251 [33]
  growth at 10 µM: 17%
U-251 [34]
  Activity: 35.23%
U-251 [35]
  growth at 6 µM: 61%
U-251 [36]
  Activity: Active
U-251 [37]
  Activity: Active
U-251 [38]
  Activity: Active
U-251 [39]
  Activity: inactive
C6 [40]
  growth at 8 µM: 43%
